According to patent US11981677B2, “Further substituted triazolo quinoxaline derivatives” (Grünenthal GmbH, priority 2018, dated 2024):

What follows are molecules tested against T1, Glucocorticoid Receptor (Homo sapiens, UniProt P04150) (assay: Agonistic mode of action on the glucocorticoid receptor (CHO-Gal4/GR luciferase reporter cell line)). Settings: CHO-Gal4/GR luciferase reporter cells; observed in the agonistic assay or the antagonistic assay (mode not given); read-out: IC50 or EC50 range.
T1 construct: expressed in transfected cells
T1 sequence (P04150 524-758 limits assumed): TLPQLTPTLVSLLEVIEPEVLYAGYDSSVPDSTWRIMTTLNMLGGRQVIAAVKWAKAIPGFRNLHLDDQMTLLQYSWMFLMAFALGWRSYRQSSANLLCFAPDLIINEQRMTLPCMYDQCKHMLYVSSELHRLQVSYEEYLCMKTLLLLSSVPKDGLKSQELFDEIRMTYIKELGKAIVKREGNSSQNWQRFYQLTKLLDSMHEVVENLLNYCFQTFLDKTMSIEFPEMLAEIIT
Format: cell-based
Excerpt: Potential selective glucocorticoid receptor modulators of this intervention can be tested for modulation of the activity of the glucocorticoid receptor using cell-based assays. These assays involve a Chinese hamster ovary (CHO) cell line which contains fragments of the glucocorticoid receptor as well as fusion proteins. The glucocorticoid receptor fragments used are capable of binding the ligand (e.g. beclomethasone) to identify molecules that compete for binding with glucocorticoid receptor ligands. In more detail, the glucocorticoid receptor ligand binding domain is fused to the DNA binding domain (DBD) of the transcriptionfactor GAL4 (GAL4 DBD-GR) and is stably integrated into a CHO cell line containing a GAL4-UAS-Luciferase reporter construct. […] After cell lysis the luminescence that is produced by luciferase after addition of the substrate is detected and EC50 or IC50 values can be calculated. Engagement of molecules which induce gene expression via glucocortocoid receptor binding to the DNA leads to expression of the luciferase gene under the control of the fusion protein GAL4 DBD-GR and therefore to a dose-dependent increase of the luminescence signal. Binding of molecules which repress beclomethasone-induced gene expression of the luciferase gene under the control of the fusion protein GAL4 DBD-GR leads to a dose-dependent reduction of the luminescence signal.
The reporter cell line CHO-Gal4/GR consisted of a chinese hamster ovary (CHO) cell line (Leibniz Institute DSMZ—German Collection of Microorganisms and Cell Cultures GmbH: ACC-110) containing a firefly luciferase gene under the control of the GR ligand binding domain fused to the DNA binding domain (DBD) of GAL4 (GAL4 DBD-GR) stably integrated into CHO cells. This cell line was established by stable transfection of CHO cells with a GAL4-UAS-Luciferase reporter construct. In a subsequent step the ligand binding domain of the GR cloned into pIRES2-EGFP-GAL4 containing the DNA binding domain of GAL4 from pFA-AT2 was transfected. This fusion construct activated firefly luciferase expression under the control of a multimerized GAL4 upstream activation sequence (UAS). The signal of the emitted luminescence was recorded by the FLIPR^TETRA. This allowed for specific detection of ligand-induced activation of the GR and therefore for the identification of compounds with agonistic properties. The GAL4/UAS reporter was premixed with a vector that constitutively expressed Renilla luciferase, which served as an internal positive control for transfection efficiency.
The complete culture medium for the assay was: • DMEM F-12 (1:1) MIXTURE (LONZA cat. No: BE04-687F/U1) 500 mL • 5 mL of 100 mM Sodium Pyruvate (LONZA cat. No: BE12-115E) • 25 mL of 7.5% Sodium Bicarbonate (LONZA cat. No BE17-613E) • 6.5 mL of 1 M Hepes (LONZA cat. No: BE17-737E) • 5 mL of 100× Penicillin/Streptomycin (LONZA cat. No DE17-602E) • 50 mL of Fetal Bovine Serum (Euroclone cat. No ECS 0180L) • 0.25 mL of 10 mg/mL Puromycin (InvivoGen cat.: ant-pr-1) • 0.5 mL of 100 mg/mL Zeocin (InvivoGen cat.: ant-zn-1)
Cryo-preserved CHO-Gal4/GR cells were suspended in complete medium and 5000 cells/25 μl/well were seeded into the wells of 384-well polystyrene assay plates (Thermo Scientific, cat. #4332) and cultured at 37° C., 5% CO2 and 95% humidity. After 24 hours growth medium was carefully removed and replaced by 30111 Opti-MEM (GIBCO, cat. #31985062) as assay buffer. To test the compounds an 8-point half-log compound dilution curve was generated in 100% DMSO starting from a 2 mM stock and compounds were then diluted 1:50 in Opti-MEM. 10111 of compounds were then added to the wells containing 30 μl Opti-MEM resulting in a final assay concentration range from 10 μM to 0.003 μM in 0.5% DMSO. Compounds were tested at 8 concentrations in quadruplicate data points. […] Finally, cells were lysed with 20 μl of Triton/Luciferin solution and the signal of the emitted luminescence was recorded at the FLIPR^TETRA for 2 minutes. […]

SMILES | IC50 or EC50 (antagonist or agonist mode, not stated per compound) [nM]
COc1c(-c2cc(F)cc3c(C4CC4)c[nH]c23)cc(F)c2c1-n1c(C)nnc1C(C)(C)N2 [Example 478, 8-(3-Cyclopropyl-5-fluoro-1H-indol-7-yl)-6-fluoro-9-methoxy-1,4,4-trimethyl-5H-[1,2,4]triazolo[4,3-a]quinoxaline] | < 100
CNc1c(-c2cc(F)cc3c2ccn3S(C)(=O)=O)cc(F)c2c1-n1c(C)nnc1C(C)(C)N2 [Example 486, [6-Fluoro-8-(6-fluoro-1-methylsulfonyl-1H-indol-4-yl)-1,4,4-trimethyl-5H-[1,2,4]triazolo[4,3-a]quinoxalin-9-yl]-methyl-amine] | 100 to 1000
CCS(=O)(=O)n1ccc2c(-c3cc(F)c4c(c3C(F)F)-n3c(C)nnc3C(C)(C)N4)cccc21 [Example 461, 9-(Difluoro-methyl)-8-[1-(ethylsulfonyl)-1H-indol-4-yl]-6-fluoro-1,4,4-trimethyl-5H-[1,2,4]triazolo[4,3-a]quinoxaline] | 100 to 1000
COc1c(-c2cc(F)cc3c2ccn3S(C)(=O)=O)cc(F)c2c1-n1c(C)nnc1C(C)(C)N2 [Example 56, 6-Fluoro-8-(6-fluoro-1-methylsulfonyl-1H-indol-4-yl)-9-methoxy-1,4,4-trimethyl-5H-[1,2,4]triazolo[4,3-a]quinoxaline] | 100 to 1000
Cc1nnc2n1-c1c(CO)c(-c3cc(F)cc4c3ccn4S(C)(=O)=O)cc(F)c1NC2(C)C [Example 453, [6-Fluoro-8-(6-fluoro-1-methylsulfonyl-1H-indol-4-yl)-1,4,4-trimethyl-5H-[1,2,4]triazolo[4,3-a]quinoxalin-9-yl]-MeOH] | < 100
CCS(=O)(=O)n1ccc2c(-c3cc(F)c4c(c3C)-n3c(C)nnc3C(C)(C)N4)cccc21 [Example 350, 8-[1-(Ethylsulfonyl)-1H-indol-4-yl]-6-fluoro-1,4,4,9-tetramethyl-5H-[1,2,4]triazolo[4,3-a]quinoxaline] | < 100
COc1c(-c2cc(C)cc3c2ccn3S(C)(=O)=O)cc(F)c2c1-n1c(C)nnc1C(C)(C)N2 [Example 476, 6-Fluoro-9-methoxy-1,4,4-trimethyl-8-(6-methyl-1-methylsulfonyl-1H-indol-4-yl)-5H-[1,2,4]triazolo[4,3-a]quinoxaline] | 100 to 1000
COc1cc(-c2cc(F)c3c(c2OC)-n2c(C)nnc2C(C)(C)N3)c2ccn(S(C)(=O)=O)c2c1 [Example 524, 6-Fluoro-9-methoxy-8-(6-methoxy-1-methylsulfonyl-1H-indol-4-yl)-1,4,4-trimethyl-5H-[1,2,4]triazolo[4,3-a]quinoxaline] | 100 to 1000
Cc1c(-c2cc(F)cc3c2ccn3S(=O)(=O)CC2CC2)cc(F)c2c1-n1c(C)nnc1C(C)(C)N2 [Example 497, 8-[1-(Cyclopropyl-methylsulfonyl)-6-fluoro-1H-indol-4-yl]-6-fluoro-1,4,4,9-tetramethyl-5H-[1,2,4]triazolo[4,3-a]quinoxaline] | < 100
Cc1c(-c2cccc3c2cnn3S(C)(=O)=O)c(F)c(F)c2c1-n1c(C)nnc1C(C)(C)N2 [Example 451, 6,7-Difluoro-1,4,4,9-tetramethyl-8-(1-methylsulfonyl-1H-indazol-4-yl)-5H-[1,2,4]triazolo[4,3-a]quinoxaline] | 100 to 1000
COc1c(-c2cc(C(F)(F)F)cc3c2ccn3S(C)(=O)=O)cc(F)c2c1-n1c(C)nnc1C(C)(C)N2 [Example 492, 6-Fluoro-9-methoxy-1,4,4-trimethyl-8-[1-methylsulfonyl-6-(trifluoromethyl)-1H-indol-4-yl]-5H-[1,2,4]triazolo[4,3-a]quinoxaline] | 100 to 1000
Cc1c(-c2cccc3c2ccn3C2CC2)cc(F)c2c1-n1c(C)nnc1C(C)(C)N2 [Example 305, 8-(1-Cyclopropyl-1H-indol-4-yl)-6-fluoro-1,4,4,9-tetramethyl-5H-[1,2,4]triazolo[4,3-a]quinoxaline] | < 100
COc1c(-c2ccc(F)c3[nH]ccc23)cc(F)c2c1-n1c(C)nnc1C(C)(C)N2 [Example 494, 6-Fluoro-8-(7-fluoro-1H-indol-4-yl)-9-methoxy-1,4,4-trimethyl-5H-[1,2,4]triazolo[4,3-a]quinoxaline] | 100 to 1000
Cc1c(-c2cc(F)cc3[nH]ccc23)cc(F)c2c1-n1c(C)nnc1C(C)(C)N2 [Example 465, 6-fluoro-8-(6-fluoro-1H-indol-4-yl)-1,4,4,9-tetramethyl-4,5-dihydro-[1,2,4]triazolo[4,3-a]quinoxaline] | < 100
Cc1c(-c2cc(F)cc3c2ccn3S(C)(=O)=O)c(F)c(Cl)c2c1-n1c(C)nnc1C(C)(C)N2 [Example 503, 6-Chloro-7-fluoro-8-(6-fluoro-1-methylsulfonyl-1H-indol-4-yl)-1,4,4,9-tetramethyl-5H-[1,2,4]triazolo[4,3-a]quinoxaline] | 1000 to 15000
Cc1c(-c2cccc3c2cnn3S(C)(=O)=O)c(Cl)c(F)c2c1-n1c(C)nnc1C(C)(C)N2 [Example 527, 7-Chloro-6-fluoro-1,4,4,9-tetramethyl-8-(1-methylsulfonyl-1H-indazol-4-yl)-5H-[1,2,4]triazolo[4,3-a]quinoxaline] | 100 to 1000
COc1c(-c2cc(F)cc3cc[nH]c23)cc(F)c2c1-n1c(C)nnc1C(C)(C)N2 [Example 515, 6-Fluoro-8-(5-fluoro-1H-indol-7-yl)-9-methoxy-1,4,4-trimethyl-5H-[1,2,4]triazolo[4,3-a]quinoxaline] | 100 to 1000
Cc1c(-c2cc(F)cc3c(C)c[nH]c23)c(Cl)c(F)c2c1-n1c(C)nnc1C(C)(C)N2 [Example 526, 7-Chloro-6-fluoro-8-(5-fluoro-3-methyl-1H-indol-7-yl)-1,4,4,9-tetramethyl-5H-[1,2,4]triazolo[4,3-a]quinoxaline] | < 100
Cc1c(-c2cc(F)cc3c2ccn3C)c(F)c(F)c2c1-n1c(C)nnc1C(C)(C)N2 [Example 521, 6,7-Difluoro-8-(6-fluoro-1-methyl-1H-indol-4-yl)-1,4,4,9-tetramethyl-5H-[1,2,4]triazolo[4,3-a]quinoxaline] | < 100
COc1c(-c2cc(F)cc3c2ccn3S(C)(=O)=O)cc(Cl)c2c1-n1c(C)nnc1C(C)(C)N2 [Example 483, 6-chloro-8-(6-fluoro-1-(methylsulfonyl)-1H-indol-4-yl)-9-methoxy-1,4,4-trimethyl-4,5-dihydro-[1,2,4]triazolo[4,3-a]quinoxaline] | < 100
Cc1c(-c2cccc3c(C)n[nH]c23)cc(F)c2c1-n1c(C)nnc1C(C)(C)N2 [Example 352, 6-Fluoro-1,4,4,9-tetramethyl-8-(3-methyl-1H-indazol-7-yl)-5H-[1,2,4]triazolo[4,3-a]quinoxaline] | 100 to 1000
